According to patent publication US20250092065A1, “2-(INDAZOL-5-YL)-6-(PIPERIDIN-4-YL)-1,7-NAPHTHYRIDINE DERIVATIVES AND RELATED COMPOUNDS AS MODULATORS FOR SPLICING NUCLEIC ACIDS AND FOR THE TREATMENT OF PROLIFERATIVE DISEASES” (REMIX THERAPEUTICS INC., priority 2022, published 2025):
Like-named read-outs stand apart in the source and are kept apart here.

Experiments:
Assay type in all cases: cell-based, human
SMN2 mRNA = experiment: RT-qPCR splicing assay, SMN2 mRNA; details: Homo sapiens, canonical junction qPCR panel, Table 4; read-out: SMN2 IC50 (decrease in CJ mRNA levels)
Procedure, shortened: (§1)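 A673 or K562 cells treated 24 h at 37 °C with 11-point 3-fold dilutions (top final 10 uM, DMSO ≤0.25%). Lysates analysed by one-step RT-qPCR for canonical (CJ) and alternative-exon (AJ) junctions, normalized to GAPDH, GUSB or PPIA. ΔΔCt vs DMSO, RQ = 2^(−ΔΔCt), expressed as percentage response.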

HTT mRNA = experiment: RT-qPCR splicing assay, HTT mRNA canonical (CJ) and alternative (AJ) junction; details: Homo sapiens
Procedure, shortened: as §1

Target C = experiment: HiBiT protein abundance assay, Target C (K562 HiBiT knock-in); details: HiBiT knock-in K562 cells, 24 hours, top dose 10 μM
Procedure, shortened: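 K562 HiBiT knock-in cells (10000/well) were treated 24 h at 37° C with a 10-point 3-fold dilution series (top 10 μM final, ≤0.25% DMSO). HiBiT luminescence was read after lytic LgBiT detection. Percent response used unmodified K562 and DMSO-treated knock-in controls, and IC50 came from a four-parameter fit at 50% of untreated.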

MYB = experiment: HiBiT protein abundance assay, MYB (K562 HiBiT knock-in); details: HiBiT knock-in K562 cells, 24 hours, top dose 10 μM
Procedure, shortened: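 K562 HiBiT knock-in, 24 h, 37 °C, top 10 μM final, 3-fold ×10, DMSO ≤0.25%. Lytic HiBiT luminescence; PC = parental K562, NC = DMSO; 4PL IC50.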

MYB mRNA = experiment: RT-qPCR splicing assay, MYB mRNA canonical (CJ) and alternative (AJ) junction; details: Homo sapiens
Procedure, shortened: as §1

Cc1nc2cc(O)c(-c3ccc4nc(N5CC[C@H](N[C@H]6C[C@H](F)C6)C5)ccc4n3)cc2o1 [Compound 350, 2-methyl-6-{6-[(3S)-3-{[(1r,3r)-3-fluorocyclobutyl]amino}pyrrolidin-1-yl]-1,5-naphthyridin-2-yl}-1,3-benzoxazol-5-ol]
100 to 1000 nM: IC50 (Target C) | IC50 (MYB) | AC50 (MYB mRNA; MYB alternative junction mRNA, RT-qPCR, read-out: MYB AJ (increase in AJ mRNA, AC50)) | IC50 (MYB mRNA; MYB canonical junction mRNA, RT-qPCR, read-out: MYB CJ (decrease in CJ mRNA levels, IC50)) | IC50 (MYB mRNA; canonical junction qPCR panel, Table 4, read-out: MYB IC50 (decrease in CJ mRNA levels))
< 100 nM: IC50 (SMN2 mRNA) | AC50 (HTT mRNA; HTT alternative junction mRNA, RT-qPCR, read-out: HTT AJ (increase in AJ mRNA, AC50)) | IC50 (HTT mRNA; HTT canonical junction mRNA, RT-qPCR, read-out: HTT CJ (decrease in CJ mRNA levels, IC50)) | IC50 (HTT mRNA; canonical junction qPCR panel, Table 4, read-out: HTT IC50 (decrease in CJ mRNA levels))
